# Paper PMC9942839, “Structural remodeling of AAA+ ATPase p97 by adaptor protein ASPL facilitates posttranslational methylation by METTL21D” (Proceedings of the National Academy of Sciences of the …, 2023)
# Positions count from the first letter of the chain named.
# Experiments:
# AtMETTL21D [1] = biological target: T1, AtMETTL21D (Arabidopsis thaliana, UniProt F4HUD6, C19S/L26V, form not given); assay: methylation assay, anti-Kme3 western blot; type: biochemical; conditions: co-substrate AtCDC48; weak gain of trimethylation; 20 mM HEPES pH 8.0, 200 mM NaCl, RT
# T1 construct: gene At1g08125; E. coli; His tag cleaved by TEV
# T1 sequence (F4HUD6 15-239 C19S/L26V): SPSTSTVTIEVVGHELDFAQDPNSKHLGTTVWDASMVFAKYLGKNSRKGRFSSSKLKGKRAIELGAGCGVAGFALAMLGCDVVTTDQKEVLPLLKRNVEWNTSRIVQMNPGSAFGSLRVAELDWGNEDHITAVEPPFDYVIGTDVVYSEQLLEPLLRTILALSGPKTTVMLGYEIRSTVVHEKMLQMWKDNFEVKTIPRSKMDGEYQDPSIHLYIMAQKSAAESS
# AtMETTL21D [2] = biological target: T2, AtMETTL21D (Arabidopsis thaliana, UniProt F4HUD6); assay: methylation assay, anti-monomethyl-lysine western blot; type: biochemical; conditions: automethylation and monomethylation of AtCDC48 in the presence of PUX1; pH 8.0, RT
# T2 construct: gene At1g08125; E. coli; His tag cleaved by TEV
# T2 sequence (F4HUD6 15-239): T1 sequence (F4HUD6 15-239 C19S/L26V) with S5C, V12L
# [3] = biological target: T3, METTL21D in p97-ND1:ASPL-CΔ:METTL21D (Homo sapiens, UniProt Q9H867); assay: X-ray crystal structure, […] Å; type: binding; conditions: METTL21D active site; crystallized with SAM, product of p97 Lys315 trimethylation; contacts Asp96, Trp126
# T3 construct: gene VCPKMT; 1:1:1 heterotrimer ~110 kDa; METTL21D His tag cleaved by TEV; p97-ND1 fragment lacking D2 domain, Lys315 trimethylated; ASPL-CΔ residues 313-500; E. coli; with Transitional endoplasmic reticulum ATPase; Tether containing UBX domain for GLUT4
# T3 sequence (Q9H867 2-229 limits assumed, stated change not applied): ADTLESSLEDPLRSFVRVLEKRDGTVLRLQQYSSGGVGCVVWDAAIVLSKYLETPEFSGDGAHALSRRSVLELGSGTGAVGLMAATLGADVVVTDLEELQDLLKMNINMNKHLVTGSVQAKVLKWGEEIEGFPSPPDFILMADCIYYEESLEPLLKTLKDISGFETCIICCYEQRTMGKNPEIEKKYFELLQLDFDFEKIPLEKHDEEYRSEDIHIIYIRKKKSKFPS
# T3 sequence (P55072 2-480 partner limits assumed): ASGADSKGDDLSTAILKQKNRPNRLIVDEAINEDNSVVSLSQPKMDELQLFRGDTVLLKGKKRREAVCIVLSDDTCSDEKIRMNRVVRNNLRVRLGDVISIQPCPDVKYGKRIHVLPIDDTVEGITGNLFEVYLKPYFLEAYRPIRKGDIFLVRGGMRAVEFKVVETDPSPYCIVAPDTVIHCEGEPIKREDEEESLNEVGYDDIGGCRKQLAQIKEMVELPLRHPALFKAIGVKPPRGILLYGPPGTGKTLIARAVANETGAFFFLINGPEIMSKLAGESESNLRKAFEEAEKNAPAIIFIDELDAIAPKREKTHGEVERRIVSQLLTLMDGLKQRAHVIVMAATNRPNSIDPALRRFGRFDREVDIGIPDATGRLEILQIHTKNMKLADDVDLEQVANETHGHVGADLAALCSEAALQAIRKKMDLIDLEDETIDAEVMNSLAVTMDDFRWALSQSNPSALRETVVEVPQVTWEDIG
# T3 sequence (Q9BZE9 313-500 partner): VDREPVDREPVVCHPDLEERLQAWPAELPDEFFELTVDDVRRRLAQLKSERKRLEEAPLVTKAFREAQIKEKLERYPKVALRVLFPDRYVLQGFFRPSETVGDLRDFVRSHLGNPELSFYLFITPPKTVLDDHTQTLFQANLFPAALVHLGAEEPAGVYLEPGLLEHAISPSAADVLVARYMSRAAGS
smiles,measurement,setting,value
C[S+](CC[C@H](N)C(=O)O)C[C@H]1O[C@@H](n2cnc3c(N)ncnc32)[C@H](O)[C@@H]1O (stereo partly drawn) [S-adenosyl-methionine],"methylation assay, anti-Kme3 western blot",AtMETTL21D [1],substitution of leucine with valine in plant AtMETTL21D resulted in gain of trimethylation activity
same,"methylation assay, anti-monomethyl-lysine western blot",AtMETTL21D [2],"AtMETTL21D monomethylated itself, as well as AtCDC48 in the presence of PUX1"
Nc1ncnc2c1ncn2[C@@H]1O[C@H](CSCC[C@H](N)C(=O)O)[C@@H](O)[C@H]1O [S-adenosyl-L-homocysteine],"X-ray crystal structure, 3.0 Å",[3],the active site of METTL21D contains a S-adenosyl-L-homocysteine (SAH) molecule
